The values that follow come from patent US20070244103A1, “Novel Compounds Having an Anti-Bacterial Activity” (Morphochem Aktiengesellschaft Fur Kombinatorische Chemie, priority 2004, published 2007).

The nature of the assay: MIC of the examples against various organisms. The format is cell-based. As to conditions: against at least two of the above organisms (12-strain panel). The protocol: The MIC (μg/ml) of the examples against various organisms was determined: A. baumannii ATCC19606, E. cloacae ATCC23355, E. coli ATCC25922, K. pneumoniae ATCC27736, P. mirabilis ATCC29906, P. aeruginosa ATCC27853, S. maltophilia ATCC13637, S. aureus ATCC43300, S. epidermidis ATCC14990, S. haemolyticus ATCC29970, E. faecalis ATCC29212 and E. faecium ATC19434.
Take `COc1ccc2nccc(NC(=O)C3CCCC(CNCc4ccc5c(n4)NC(=O)CS5)C3)c2n1` (stereo not shown) [Example 17, 3-{[(3-Oxo-3,4-dihydro-2H-pyrido[3,2-b][1,4]thiazin-6-ylmethyl)-amino]-methyl}-cyclohexanecarboxylic acid (6-methoxy-[1,5]-naphthyridin-4-yl)-amide]: the MIC was no more than 2 µg/mL.
As to `COc1cnc2cccc(C(O)CN3C4CCC3CC(NCc3ccc5c(c3)NC(=O)CS5)C4)c2c1` (single isomer, unassigned) [Example 36, 6-({8-[2-Hydroxy-2-(3-methoxy-quinolin-5-yl)-ethyl]-8-aza-bicyclo[3.2.1]oct-3-ylamino}-methyl)-4H-benzo[1,4]thiazin-3-one], the MIC was no more than 2 µg/mL.
`COc1ccc2nccc(C(O)CN3C4CCC3CC(NCc3ccc5nsnc5c3)C4)c2n1` (single isomer, unassigned) [Example 11, 2-{3-[(Benzo[1,2,5]thiadiazol-5-ylmethyl)-amino]-8-aza-bicyclo[3.2.1]oct-8-yl}-1-(6-methoxy-[1,5]-naphthyridin-4-yl)-ethanol]: the minimal inhibitory concentration (MIC) was no more than 2 µg/mL.
In the case of `COc1cnc2ccc(Cl)c(C(O)CN3CCCC(CNC/C=C/c4ccccc4)C3)c2n1` (stereo not shown) [Example 99, 1-(6-Chloro-3-methoxy-quinoxalin-5-yl)-2-{3-[((E)-3-phenyl-allylamino)-methyl]-piperidin-1-yl}-ethanol], the minimal inhibitory concentration (MIC) was no more than 2 µg/mL.
The value for `COc1cnc2cccc(C(O)CN3CCCC(CNCc4cc5c(cn4)OCCO5)C3)c2n1` (stereo not shown) [Example 88, 2-(3-{[(2,3-Dihydro-[1,4]dioxino[2,3-c]pyridin-7-ylmethyl)-amino]-methyl}-piperidin-1-yl)-1-(3-methoxyquinoxalin-5-yl)-ethanol] was no more than 2 µg/mL; that for `COc1ccc2ncc(Cl)c(C(O)CN3CCCC(CNCc4ccc5c(c4)OCO5)C3)c2c1` (single isomer, unassigned) [Example 65, 2-(3-{[(Benzo[1,3]dioxol-5-ylmethyl)-amino]-methyl}-piperidin-1-yl)-1-(3-chloro-6-methoxy-quinolin-4-yl)-ethanol] was no more than 2 µg/mL.
As for `COc1ccc2ncc(Cl)c(C(O)CN3C4CCC3CC(NCc3ccc5c(c3)OCCO5)C4)c2c1` (single isomer, unassigned) [Example 62, 1-(3-Chloro-6-methoxy-quinolin-4-yl)-2-{3-[(2,3-dihydro-benzo[1,4]dioxin-6-ylmethyl)-amino]-8-aza-bicyclo[3.2.1]oct-8-yl}-ethanol], the MIC is no more than 2 µg/mL.
For the compound `COc1cnc2cccc(C(O)CN3C4CCC3CC(NCc3ccc5c(c3)OCO5)C4)c2n1` (stereo not shown) [Example 81, 2-{3-[(Benzo[1,3]dioxol-5-ylmethyl)-amino]-8-aza-bicyclo[3.2.1]oct-8-yl}-1-(3-methoxy-quinoxalin-5-yl)-ethanol], the minimum inhibitory concentration (MIC) is no more than 2 µg/mL.
The value for `COc1ccc2ncc(Cl)c(C(O)CN3C4CCC3CC(NC/C=C/c3ccccc3)C4)c2c1` (single isomer, unassigned) [Example 63, 1-(3-Chloro-6-methoxy-quinolin-4-yl)-2-[3-((E)-3-phenyl-allylamino)-8-aza-bicyclo[3.2.1]oct-8-yl]-ethanol] was no more than 2 µg/mL; that for `COc1cnc2ccc(Cl)c(C(O)CN3CCCC(CNCc4cc5c(cc4F)SCC(=O)N5)C3)c2n1` (stereo not shown) [Example 98, 6-[({1-[2-(6-Chloro-3-methoxy-quinoxalin-5-yl)-2-hydroxy-ethyl]-piperidin-3-ylmethyl}-amino)-methyl]-7-fluoro-4H-benzo[1,4]thiazin-3-one] was no more than 2 µg/mL; that for `COc1ccc2nccc(C(O)CN3C4CCC3CC(NCc3ccc5c(c3)OCCO5)C4)c2n1` (single isomer, unassigned) [Example 10, 2-{3-[(2,3-Dihydro-benzo[1,4]dioxin-6-ylmethyl)-amino]-8-aza-bicyclo[3.2.1]oct-8-yl}-1-(6-methoxy-[1,5]-naphthyridin-4-yl)-ethanol] was no more than 2 µg/mL.
Under `COc1cnc2cccc(C(O)CN3CCCC(CNCc4ccc5c(n4)NC(=O)CS5)C3)c2n1` (stereo not shown) [Example 90, 6-[({1-[2-Hydroxy-2-(3-methoxy-quinoxalin-5-yl)-ethyl]-piperidin-3-ylmethyl}-amino)-methyl]-4H-pyrido[3,2-b][1,4]thiazin-3-one] stands no more than 2 µg/mL.
The value for `COc1cnc2cccc(C(O)CN3CCCC(CNCc4ccc5nsnc5c4)C3)c2c1` (single isomer, unassigned) [Example 41, 2-(3-{[(Benzo[1,2,5]thiadiazol-5-ylmethyl)-amino]-methyl}-piperidin-1-yl)-1-(3-methoxy-quinolin-5-yl)-ethanol] was no more than 2 µg/mL.
Take `COc1cnc2cccc(C(O)CN3C4CCC3CC(NC/C=C/c3ccccn3)C4)c2c1` (single isomer, unassigned) [Example 35, 1-(3-Methoxy-quinolin-5-yl)-2-[3-((E)-3-pyridin-2-yl-allylamino)-8-aza-bicyclo[3.2.1]oct-8-yl]-ethanol]: the minimum inhibitory concentration (MIC) is no more than 2 µg/mL.
On to `COc1cnc2ccc(Cl)c(C(O)CN3CCCC(CNCc4ccc5c(c4)NC(=O)CO5)C3)c2n1` (stereo not shown) [Example 93, 6-[({1-[2-(6-Chloro-3-methoxy-quinoxalin-5-yl)-2-hydroxy-ethyl]-piperidin-3-ylmethyl}-amino)-methyl]-4H-benzo[1,4]oxazin-3-one], for which the MIC is no more than 2 µg/mL.
The value for `COc1cnc2ccc(Cl)c(C(O)CN3CCCC(CNCc4ccc5c(c4)OCCO5)C3)c2n1` (stereo not shown) [Example 95, 1-(6-Chloro-3-methoxy-quinoxalin-5-yl)-2-(3-{[(2,3-dihydro-benzo[1,4]dioxin-6-ylmethyl)-amino]-methyl}-piperidin-1-yl)-ethanol] was no more than 2 µg/mL; that for `COc1cnc2cccc(C(O)CN3CCCC(CNCc4ccc5c(c4)NC(=O)CS5)C3)c2n1` (stereo not shown) [Example 91, 6-[({1-[2-Hydroxy-2-(3-methoxy-quinoxalin-5-yl)-ethyl]-piperidin-3-ylmethyl}-amino)-methyl]-4H-benzo[1,4]thiazin-3-one] was no more than 2 µg/mL.
Under `COc1ccc2nccc(NC(=O)C3CCCC(CNCc4ccc5c(c4)NC(=O)CO5)C3)c2n1` (stereo not shown) [Example 15, 3-{[(3-Oxo-3,4-dihydro-2H-benzo[1,4]oxazin-6-ylmethyl)-amino]-methyl}-cyclohexanecarboxylic acid (6-methoxy-[1,5]-naphthyridin-4-yl)-amide] stands no more than 2 µg/mL; under `COc1ccc2ncc(Cl)c(C(O)CN3CCCC(CNCc4ccc5nsnc5c4)C3)c2c1` (single isomer, unassigned) [Example 70, 2-(3-{[(Benzo[1,2,5]thiadiazol-5-ylmethyl)-amino]-methyl}-piperidin-1-yl)-1-(3-chloro-6-methoxy-quinolin-4-yl)-ethanol], no more than 2 µg/mL.
On to `COc1cnc2cccc(C(O)CN3CCCC(CNCc4ccc5c(c4)NC(=O)CO5)C3)c2n1` (stereo not shown) [Example 87, 6-[({1-[2-Hydroxy-2-(3-methoxy-quinoxalin-5-yl)-ethyl]-piperidin-3-ylmethyl}-amino)-methyl]-4H-benzo[1,4]oxazin-3-one], for which the MIC was no more than 2 µg/mL.
The value for `COc1ccc2nccc(NC(=O)C3CCCC(CNC/C=C/c4ccccc4)C3)c2c1` (stereo not shown) [Example 53, 3-[((E)-3-Phenyl-allylamino)-methyl]-cyclohexanecarboxylic acid (6-methoxy-quinolin-4-yl)-amide] was no more than 2 µg/mL.
The value for `COc1ccc2cccc(NC(=O)C3CCCC(CNCc4ccc5c(c4)NC(=O)CS5)C3)c2n1` (stereo not shown) [Example 112, 3-{[(3-oxo-3,4-dihydro-2H-benzo[1,4]thiazin-6-ylmethyl)-amino]-methyl}-cyclohexanecarboxylic acid (2-methoxy-quinolin-8-yl)-amide] was no more than 2 µg/mL; that for `COc1ccc2ncc(Cl)c(C(O)CN3C4CCC3CC(NCc3ccc5c(c3)OCO5)C4)c2c1` (single isomer, unassigned) [Example 61, 2-{3-[(Benzo[1,3]dioxol-5-ylmethyl)-amino]-8-aza-bicyclo[3.2.1]oct-8-yl}-1-(3-chloro-6-methoxy-quinolin-4-yl)-ethanol] was no more than 2 µg/mL.
The value for `COc1cnc2cccc(C(O)CN3C4CCC3CC(NCc3ccc5c(n3)NC(=O)CS5)C4)c2c1` (single isomer, unassigned) [Example 37, 6-({8-[2-Hydroxy-2-(3-methoxy-quinolin-5-yl)-ethyl]-8-aza-bicyclo[3.2.1]oct-3-ylamino}-methyl)-4H-pyrido[3,2-b][1,4]thiazin-3-one] was no more than 2 µg/mL; that for `COc1cnc2cccc(C(O)CN3CCCC(CNCc4cc5c(cc4F)SCC(=O)N5)C3)c2n1` (stereo not shown) [Example 89, 7-Fluoro-6-[({1-[2-hydroxy-2-(3-methoxy-quinoxalin-5-yl)-ethyl]-piperidin-3-ylmethyl}-amino)-methyl]-4H-benzo[1,4]thiazin-3-one] was no more than 2 µg/mL.
On to `COc1ccc2ncc(Cl)c(C(O)CN3CCOC(CNCc4ccc5c(c4)OCO5)C3)c2c1` (single isomer, unassigned) [Example 72, 2-(2-{[(Benzo[1,3]dioxol-5-ylmethyl)-amino]-methyl}-morpholin-4-yl)-1-(3-chloro-6-methoxy-quinolin-4-yl)-ethanol], for which the MIC was no more than 2 µg/mL.
Under `COc1ccc2ncc(Cl)c(C(O)CN3CCOC(CNCc4ccc5c(c4)OCCO5)C3)c2c1` (single isomer, unassigned) [Example 73, 1-(3-Chloro-6-methoxy-quinolin-4-yl)-2-(2-{[(2,3-dihydro-benzo[1,4]dioxin-6-ylmethyl)-amino]-methyl}-morpholin-4-yl)-ethanol] stands no more than 2 µg/mL; under `COc1ccc2nccc(C(O)CN3CCOC(CNCc4ccc5c(c4)NC(=O)CS5)C3)c2n1` (stereo not shown) [Example 32, 6-[({4-[2-Hydroxy-2-(6-methoxy-[1,5]naphthyridin-4-yl)-ethyl]-morpholin-2-ylmethyl}amino)-methyl]-4H-benzo[1,4]thiazin-3-one], no more than 2 µg/mL.
